Source: the supplement of paper PMC10307832

Key:
Test in all cases: relative viability (nuclei count vs DMSO), 5 days (fraction); higher = more cells survive
NCI-H2023 = system: NCI-H2023
Method in brief: (§1)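 Relative viability is defined as nuclei in treated wells over nuclei in vehicle wells. Duplicate plates were run and medians reported. Lung cancer cell lines in 1536-well plates were dosed by pin tool one day after seeding, with one drug or with a fixed anchor-drug dose plus five library-drug doses (not always all listed) in √10 steps, and nuclei were counted after 5 days.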

COR-L 105 = system: COR-L 105
Method in brief: as §1

COR-L23 = system: COR-L23
Method in brief: as §1

NCI-H1975 = system: NCI-H1975
Method in brief: as §1

CAL-12T = system: CAL-12T
Method in brief: as §1

NCI-H2170 = system: NCI-H2170
Method in brief: as §1

LXF-289 = system: LXF-289
Method in brief: as §1

HOP-62 = system: HOP-62
Method in brief: as §1

NCI-H1651 = system: NCI-H1651
Method in brief: as §1

NCI-H650 = system: NCI-H650
Method in brief: as §1

NCI-H3122 = system: NCI-H3122
Method in brief: as §1

SK-MES-1 = system: SK-MES-1
Method in brief: as §1

LCLC-103H = system: LCLC-103H
Method in brief: as §1

RERF-LC-KJ = system: RERF-LC-KJ
Method in brief: as §1

PC-14 = system: PC-14
Method in brief: as §1

NCI-H2085 = system: NCI-H2085
Method in brief: as §1

NCI-H2087 = system: NCI-H2087
Method in brief: as §1

NCI-H1395 = system: NCI-H1395
Method in brief: as §1

NCI-H647 = system: NCI-H647
Method in brief: as §1

EPLC-272H = system: EPLC-272H
Method in brief: as §1

A-427 = system: A-427
Method in brief: as §1

NCI-H1993 = system: NCI-H1993
Method in brief: as §1

With O=c1[nH]c2ccccc2n1C1CCN(CCCC(c2ccc(F)cc2)c2ccc(F)cc2)CC1 [Pimozide] + CC(=O)c1c(C)c2cnc(Nc3ccc(N4CCNCC4)cn3)nc2n(C2CCCC2)c1=O [Palbociclib] (partner 0.5 µM) the relative viability (NCI-H2023; first compound 0.08 µM) was 0.337, the relative viability (NCI-H2023; first compound 0.253 µM) was 0.39 and the relative viability (NCI-H2023; first compound 0.8 µM) was 0.341. The relative viability (NCI-H2023; first compound 2.53 µM) was 0.333, the relative viability (NCI-H2023; first compound 8 µM) was 0.245 and the relative viability (COR-L 105; first compound 0.08 µM) was 0.378. The relative viability (COR-L 105; first compound 0.253 µM) was 0.399, the relative viability (COR-L 105; first compound 0.8 µM) was 0.409 and the relative viability (COR-L 105; first compound 2.53 µM) was 0.426. For the same molecule, the relative viability (COR-L 105; first compound 8 µM) was 0.416, the relative viability (COR-L23; first compound 0.08 µM) was 0.291 and the relative viability (COR-L23; first compound 0.253 µM) was 0.346. For the same molecule, the relative viability (COR-L23; first compound 0.8 µM) was 0.293, the relative viability (COR-L23; first compound 2.53 µM) was 0.267 and the relative viability (COR-L23; first compound 8 µM) was 0.307. For the same molecule, the relative viability (NCI-H1975; first compound 0.08 µM) was 0.402, the relative viability (NCI-H1975; first compound 0.253 µM) was 0.515 and the relative viability (NCI-H1975; first compound 0.8 µM) was 0.619. It also gave a relative viability (NCI-H1975; first compound 2.53 µM) of 0.593, a relative viability (NCI-H1975; first compound 8 µM) of 0.494 and a relative viability (CAL-12T; first compound 0.08 µM) of 0.473. For the same molecule, the relative viability (CAL-12T; first compound 0.253 µM) was 0.416, the relative viability (CAL-12T; first compound 0.8 µM) was 0.442 and the relative viability (CAL-12T; first compound 2.53 µM) was 0.295. For the same molecule, the relative viability (CAL-12T; first compound 8 µM) was 0.269, the relative viability (NCI-H2170; first compound 0.08 µM) was 0.384 and the relative viability (NCI-H2170; first compound 0.253 µM) was 0.363. For the same molecule, the relative viability (NCI-H2170; first compound 0.8 µM) was 0.365, the relative viability (NCI-H2170; first compound 2.53 µM) was 0.358 and the relative viability (NCI-H2170; first compound 8 µM) was 0.369. The relative viability (LXF-289; first compound 0.08 µM) was 0.588, the relative viability (LXF-289; first compound 0.253 µM) was 0.607 and the relative viability (LXF-289; first compound 0.8 µM) was 0.571. For the same molecule, the relative viability (LXF-289; first compound 2.53 µM) was 0.574, the relative viability (LXF-289; first compound 8 µM) was 0.586 and the relative viability (HOP-62; first compound 0.08 µM) was 0.412. For the same molecule, the relative viability (HOP-62; first compound 0.253 µM) was 0.391, the relative viability (HOP-62; first compound 2.53 µM) was 0.361 and the relative viability (HOP-62; first compound 8 µM) was 0.442. It also gave a relative viability (NCI-H1651; first compound 0.08 µM) of 0.514, a relative viability (NCI-H1651; first compound 0.253 µM) of 0.466 and a relative viability (NCI-H1651; first compound 0.8 µM) of 0.534. It also gave a relative viability (NCI-H1651; first compound 2.53 µM) of 0.497, a relative viability (NCI-H1651; first compound 8 µM) of 0.546 and a relative viability (NCI-H650; first compound 0.08 µM) of 0.396. For the same molecule, the relative viability (NCI-H650; first compound 0.253 µM) was 0.313, the relative viability (NCI-H650; first compound 0.8 µM) was 0.331 and the relative viability (NCI-H650; first compound 2.53 µM) was 0.313. It also gave a relative viability (NCI-H650; first compound 8 µM) of 0.291, a relative viability (NCI-H3122; first compound 0.08 µM) of 0.175 and a relative viability (NCI-H3122; first compound 0.253 µM) of 0.176. For the same molecule, the relative viability (NCI-H3122; first compound 0.8 µM) was 0.174, the relative viability (NCI-H3122; first compound 2.53 µM) was 0.163 and the relative viability (NCI-H3122; first compound 8 µM) was 0.185. It also gave a relative viability (SK-MES-1; first compound 0.08 µM) of 0.307, a relative viability (SK-MES-1; first compound 0.253 µM) of 0.298 and a relative viability (SK-MES-1; first compound 0.8 µM) of 0.303. For the same molecule, the relative viability (SK-MES-1; first compound 2.53 µM) was 0.316, the relative viability (SK-MES-1; first compound 8 µM) was 0.314 and the relative viability (LCLC-103H; first compound 0.08 µM) was 0.451. The relative viability (LCLC-103H; first compound 0.253 µM) was 0.46, the relative viability (LCLC-103H; first compound 0.8 µM) was 0.428 and the relative viability (LCLC-103H; first compound 2.53 µM) was 0.444. The relative viability (LCLC-103H; first compound 8 µM) was 0.489, the relative viability (RERF-LC-KJ; first compound 0.08 µM) was 1 and the relative viability (RERF-LC-KJ; first compound 0.253 µM) was 0.972. For the same molecule, the relative viability (RERF-LC-KJ; first compound 0.8 µM) was 0.987, the relative viability (RERF-LC-KJ; first compound 2.53 µM) was 0.778 and the relative viability (RERF-LC-KJ; first compound 8 µM) was 0.851. The relative viability (PC-14; first compound 0.253 µM) was 0.579, the relative viability (PC-14; first compound 0.8 µM) was 0.368 and the relative viability (PC-14; first compound 2.53 µM) was 0.219. For the same molecule, the relative viability (PC-14; first compound 8 µM) was 0.178, the relative viability (NCI-H2085; first compound 0.08 µM) was 0.452 and the relative viability (NCI-H2085; first compound 0.253 µM) was 0.483. The relative viability (NCI-H2085; first compound 0.8 µM) was 0.438, the relative viability (NCI-H2085; first compound 2.53 µM) was 0.479 and the relative viability (NCI-H2085; first compound 8 µM) was 0.422. It also gave a relative viability (NCI-H2087; first compound 0.08 µM) of 0.197, a relative viability (NCI-H2087; first compound 0.253 µM) of 0.233 and a relative viability (NCI-H2087; first compound 2.53 µM) of 0.274. The relative viability (NCI-H2087; first compound 8 µM) was 0.195, the relative viability (NCI-H1395; first compound 0.08 µM) was 0.579 and the relative viability (NCI-H1395; first compound 0.253 µM) was 0.655. For the same molecule, the relative viability (NCI-H1395; first compound 0.8 µM) was 0.538, the relative viability (NCI-H1395; first compound 2.53 µM) was 0.623 and the relative viability (NCI-H1395; first compound 8 µM) was 0.578. The relative viability (NCI-H647; first compound 0.08 µM) was 0.404, the relative viability (NCI-H647; first compound 0.253 µM) was 0.509 and the relative viability (NCI-H647; first compound 0.8 µM) was 0.384. It also gave a relative viability (NCI-H647; first compound 2.53 µM) of 0.32, a relative viability (NCI-H647; first compound 8 µM) of 0.313 and a relative viability (EPLC-272H; first compound 0.08 µM) of 0.309. For the same molecule, the relative viability (EPLC-272H; first compound 0.253 µM) was 0.308, the relative viability (EPLC-272H; first compound 0.8 µM) was 0.328 and the relative viability (EPLC-272H; first compound 2.53 µM) was 0.329. The relative viability (EPLC-272H; first compound 8 µM) was 0.333, the relative viability (A-427; first compound 0.08 µM) was 0.531 and the relative viability (A-427; first compound 0.253 µM) was 0.57. The relative viability (A-427; first compound 0.8 µM) was 0.462, the relative viability (A-427; first compound 2.53 µM) was 0.457 and the relative viability (A-427; first compound 8 µM) was 0.497. The relative viability (NCI-H1993; first compound 0.08 µM) was 0.616, the relative viability (NCI-H1993; first compound 0.253 µM) was 0.58 and the relative viability (NCI-H1993; first compound 0.8 µM) was 0.653. It also gave a relative viability (NCI-H1993; first compound 2.53 µM) of 0.556 and a relative viability (NCI-H1993; first compound 8 µM) of 0.558.
